Values joined by “and” are separate entries in the source; they are usually repeats but may differ in a detail not shown here. Equal values may be shown once. Read-outs that look alike come from different tables or passages of the source.
Legend:
5-HT1B receptor [1] = molecular target: T1, 5-HT1B receptor (Homo sapiens, UniProt P28222); assay: 5-HT1B receptor affinity (in vitro data, Fig. 1); format: binding; details: data provided by AstraZeneca
[2] = logD (in vitro data, Fig. 1); format: physicochemical; details: data provided by AstraZeneca
5-HT1B receptor [3] = assay: PET displacement by fenfluramine-induced endogenous 5-HT release in NHP brain; format: in vivo, cynomolgus monkey; details: for Specific binding (45-123 min) in the occipital cortex: baseline PET
Description: (§1) Three female cynomolgus monkeys were supplied by Astrid Fagraeus Laboratory at the Karolinska Institutet (Solna, Sweden). Anesthesia was initiated via intramuscular injection of ketamine hydrochloride (ca. 10 mg/kg) and after, intubation was maintained by the administration of a mixture of sevoflurane, oxygen, and medical air.
(§2) The NHPs were observed continuously during the days of PET measurements. Body temperature was maintained by Bair Hugger-Model 505 (Arizant Healthcare Inc., MN) and monitored with an esophageal thermometer. Heart rate, blood pressure, respiratory rate, and oxygen saturation were continuously monitored throughout the experiments. Fluid balance was maintained by a continuous infusion of saline. The NHP head was fixed in position throughout PET data acquisition as described previously. PET measurements were conducted using a high-resolution research tomograph (Siemens). Radioactivity in the brain was measured continuously for 123 min after radioligand injection according to a preprogrammed series of 34 frames.
PET measurements using fenfluramine to evaluate the sensitivity of [^11C]1 and [^11C]3 towards endogenous 5-HT release followed an identical procedure for two NHPs (weight 6.8 and 7.0 kg). Each NHP was used in a baseline and a displacement PET measurement with intravenous infusion of fenfluramine over 5 min starting 15 min after injection of the same radioligand as used in the baseline measurement. The dose of fenfluramine was 1 mg/kg (i.v.) for both radioligands and 5 mg/kg (i.v.) for [^11C]3 only. After an unexpected complication, the study was limited to be concluded only at the lower dose level. In summary, results for [^11C]1 were acquired from this study (1 mg/kg of fenfluramine) and from Lindberg et al. (5.0 mg/kg of fenfluramine), [15] results for [^11C]2 were exclusively acquired from Finnema et al., and all results for [^11C]3 were acquired from this study. The experimental procedure in this study was designed to replicate the procedure described by Finnema et al..
(§3) Average PET images were manually co-registered to a T1-weighted brain magnetic resonance (MR) image previously obtained for each monkey. The co-registration parameters were applied to the dynamic PET data. Regions of interest (ROI) were delineated manually for the whole brain, occipital cortex, globus pallidus, caudate nucleus, putamen, ventral striatum (nucleus accumbens), cerebellum, frontal cortex, midbrain, thalamus, and hippocampus. Regional radioactivity was expressed as standardized uptake value (SUV), which was calculated as uptake (becquerels/milliliter)/injected radioactivity (becquerels) × body weight (grams).
(§4) The cerebellum was used as a reference region because this region has negligible density of 5-HT1B receptors. Specific binding to the 5-HT1B receptor was defined as the difference between the total radioactivity concentration in the target brain region and that in the cerebellum, each using the area under the time-radioactivity curve for the scan interval 45–123 min. The binding potential (BPND) was defined as the ratio of specific binding to the radioactivity concentration in the cerebellum, calculated by simplified reference tissue model (SRTM).

5-HT1B receptor [4] = molecular target: T1, 5-HT1B receptor; assay: GTPγ35S binding assay for EC50 and intrinsic activity (agonist/antagonist efficacy); format: biochemical; details: data provided by AstraZeneca; for Antagonist effect / Agonist effect: measured at 10 μM
Description: EC50 values and intrinsic activity (antagonist/agonist efficacy) were measured by comparing 5-HT1B receptor ability to bind GTPγ^35S when stimulated with 5-HT. The agonist/antagonist effect (percentage) was measured at 10 μM and EC50 in a range from 10 μM to 170 pM. EC50 was determined as the concentration at half the maximum of the dose-response curve.

5-HT1B receptor [5] = tested on: 5-HT1B receptor; set-up: method as in PMID 20222157; details: baseline PET; results for [11C]2 acquired from Finnema et al.; cited from earlier work
5-HT1B receptor [6] = assay: PET baseline and AR-A000002 pretreatment measurement of specific binding in NHP brain; format: in vivo, cynomolgus monkey
Description: as §1, §2
In an initial PET study to evaluate the specific binding of [^11C]3, one NHP (weight 6.9 kg) was used in a baseline measurement. This monkey was also used in a pretreatment paradigm in which the 5-HT1B antagonist AR-A000002 (AZ10419427; 2.0 mg/kg) was intravenously infused over 6 min starting at 30 min before radioligand injection.
as §3, §4

[7] = fenfluramine 1.0 mg/kg i.v. 15 min after radioligand, 45-123 min, individual monkeys
[8] = fenfluramine 1.0 mg/kg i.v., 45-123 min
[9] = fenfluramine 1.0 mg/kg i.v., individual monkeys
[10] = fenfluramine 5.0 mg/kg, 45-123 min
[11] = AR-A000002 2.0 mg/kg i.v. pretreatment vs baseline
[12] = after pretreatment with AR-A000002 2.0 mg/kg i.v.

T1 sequence (P28222 whole entry): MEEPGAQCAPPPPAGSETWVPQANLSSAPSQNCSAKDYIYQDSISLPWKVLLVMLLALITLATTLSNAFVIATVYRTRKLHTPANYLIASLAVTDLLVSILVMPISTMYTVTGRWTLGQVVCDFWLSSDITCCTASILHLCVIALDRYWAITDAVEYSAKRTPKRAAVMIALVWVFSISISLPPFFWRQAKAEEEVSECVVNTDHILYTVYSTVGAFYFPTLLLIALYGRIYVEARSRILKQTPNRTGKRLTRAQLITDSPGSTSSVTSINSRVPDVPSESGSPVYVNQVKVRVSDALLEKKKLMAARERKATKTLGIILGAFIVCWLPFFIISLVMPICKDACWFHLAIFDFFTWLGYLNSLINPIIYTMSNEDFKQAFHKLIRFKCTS

Compound: [11CH3]N1CCN(c2cc(F)cc3c(=O)cc(C(=O)Nc4ccc(N5CCOCC5)c(F)c4)oc23)CC1 [[^11C]1]
- Ki (5-HT1B receptor [1]): 0.13 nM
- logD [2]: 2.3
- Specific binding (45-123 min) in the occipital cortex (5-HT1B receptor [3]): 3.2
- Decrease in specific binding, occipital cortex (5-HT1B receptor [3]; [7]): 19%
- Reduction in specific binding, midbrain (5-HT1B receptor [3]; [8]): 2%
- Reduction in specific binding, thalamus (5-HT1B receptor [3]; [8]): 33%
- Displacement (decrease in specific binding), globus pallidus (5-HT1B receptor [3]; [9]): 3% and 9%
- Antagonist effect (5-HT1B receptor [4]): 190%

Compound: Cc1ccc(N2CCN([11CH3])CC2)c2oc(C(=O)Nc3ccc(N4CCOCC4)cc3)cc(=O)c12 [[^11C]2]
- Ki (5-HT1B receptor [1]): 0.4 nM
- logD [2]: 1.3
- Specific binding (45-123 min) in the occipital cortex (5-HT1B receptor [5]): 1.9
- Agonist effect (5-HT1B receptor [4]): 53.2%
- Antagonist effect (5-HT1B receptor [4]): 48%

Compound: [11CH3]N1CCN(c2cccc3c2O[C@H](C(=O)Nc2ccc(N4CCOCC4)cc2)CC3)CC1 [[^11C]3]
- Ki (5-HT1B receptor [1]): 0.6 nM
- logD [2]: 1.5
- Specific binding (45-123 min) in the occipital cortex (5-HT1B receptor [3]): 0.9
- Decrease in specific binding, occipital cortex (5-HT1B receptor [3]; [7]): 16% and 27%
- Displacement (decrease in specific binding), globus pallidus (5-HT1B receptor [3]; [9]): 4% and 11%
- Decrease in specific binding, occipital cortex (5-HT1B receptor [3]; fenfluramine 5.0 mg/kg i.v. 15 min after radioligand, 45-123 min, individual monkeys): 61% and 62%
- Reduction in specific binding, frontal cortex (5-HT1B receptor [3]; [10]): 68%
- Reduction in specific binding, hippocampus (5-HT1B receptor [3]; [10]): 34%
- Displacement, globus pallidus (5-HT1B receptor [3]; fenfluramine 5.0 mg/kg, individual monkeys): 35% and 49%
- Reduction of BPND, globus pallidus (5-HT1B receptor [6]; [11]): 52%
- Reduction of BPND, occipital cortex (5-HT1B receptor [6]; [11]): 90%
- BPND, globus pallidus (5-HT1B receptor [6]; [12]): 0.23
- BPND, occipital cortex (5-HT1B receptor [6]; [12]): 0.07
- BPND (SRTM), globus pallidus (5-HT1B receptor [6]; baseline): 0.48
- BPND (SRTM), occipital cortex (5-HT1B receptor [6]; baseline): 0.7
- Maximum radioactivity in the whole brain (5-HT1B receptor [6]; baseline PET, i.v., one monkey): 2.5 SUV
- Time of maximum whole brain radioactivity (5-HT1B receptor [6]; baseline PET, i.v., one monkey): 10 min
- Agonist effect (5-HT1B receptor [4]): 77.1%
- Antagonist effect (5-HT1B receptor [4]): 18%
- EC50 (5-HT1B receptor [4]; range 10 μM to 170 pM): 0.97 nM
